Assay results published in the SangsterLogP compilation.

assay: method code SF-AS, from Cloux, J.; Crommen, J.; Delarge, J.; Pirard, M.; Thunus, L. (1988). Attempts at calculating hydrophobic constant of the sulfonylurea group. J Pharm Belg, 43(3)141-151.; conditions: not given

**Q.** With `CC(C)(C)NC(=O)NS(=O)(=O)c1ccccc1` as the molecule, how does the logP read?
**A.** 1.95

**Q.** Which logP does the source give for `CN(C)C(=O)NS(=O)(=O)c1ccccc1` here?
**A.** 0.28

**Q.** For `CC(C)NC(=O)NS(=O)(=O)c1ccccc1`, which logP is on record?
**A.** 1.34

**Q.** For `CCN(CC)C(=O)NS(=O)(=O)c1ccccc1`, which logP is on record?
**A.** 0.99

**Q.** Which logP does the source give for `CCCNC(=O)NS(=O)(=O)c1ccccc1` here?
**A.** 1.44

**Q.** With `CCNC(=O)NS(=O)(=O)c1ccccc1` as the molecule, how does the logP read?
**A.** 0.9

**Q.** Which logP does the source give for `NC(=O)NS(=O)(=O)c1ccccc1` here?
**A.** 0.28

same assay, conditions: pH 3.5

**Q.** For `NC(=O)NS(=O)(=O)c1cccnc1`, which logD is on record?
**A.** -0.65

**Q.** Which logD does the source give for `CNC(=O)NS(=O)(=O)c1cccnc1` here?
**A.** -0.45

assay: not given; conditions: not given

**Q.** Which logP does the source give for `CNC(=O)N(C)S(=O)(=O)Cc1ccccc1` here?
**A.** 1.18

**Q.** With `NC(=O)NS(=O)(=O)Cc1ccccc1` as the molecule, how does the logP read?
**A.** 0.28

**Q.** Which logP does the source give for `CNC(=O)NS(=O)(=O)Cc1ccccc1` here?
**A.** 0.54

**Q.** Which logP does the source give for `CN(C)C(=O)NS(=O)(=O)Cc1ccccc1` here?
**A.** 0.54

**Q.** With `CNC(=O)N(C)S(=O)(=O)c1cccnc1` as the molecule, how does the logP read?
**A.** 0.42
